≈ marks a conversion by molar mass, not a printed value.

For test [1], the system named is influenza B/Victoria/102/85. As to the kind of experiment: Inhibition of influenza virus replication in vitro, plaque reduction in MDCK cells (Flu B). Type of test: cell-based. Conditions: 72 h, influenza B/Victoria/102/85, MDCK cells, 3 days, read-out: I50 Plaque Assay (μg/ml) Flu B.
In test [2] the test system is influenza A/Singapore/1/57 (H2N2). The test is described as follows: microbe, parasite or virus in culture. Type of test: cell-based. Conditions: H2N2, MDCK, 72 h, read-out: I50 Plaque Assay (μg/ml) Flu A.
The target of test [3] is N2 influenza neuraminidase (Influenza A virus (A/Aichi/2/1968(H3N2)), UniProt Q75VQ4). The note with it: read-out: NA1 (μg/ml), virion X31, MUN substrate, pH 6.5, 15 minutes at 37° C.
Sequence of N2 influenza neuraminidase (Influenza A virus (A/Aichi/2/1968(H3N2)), UniProt Q75VQ4) (Q75VQ4 whole entry, looked up): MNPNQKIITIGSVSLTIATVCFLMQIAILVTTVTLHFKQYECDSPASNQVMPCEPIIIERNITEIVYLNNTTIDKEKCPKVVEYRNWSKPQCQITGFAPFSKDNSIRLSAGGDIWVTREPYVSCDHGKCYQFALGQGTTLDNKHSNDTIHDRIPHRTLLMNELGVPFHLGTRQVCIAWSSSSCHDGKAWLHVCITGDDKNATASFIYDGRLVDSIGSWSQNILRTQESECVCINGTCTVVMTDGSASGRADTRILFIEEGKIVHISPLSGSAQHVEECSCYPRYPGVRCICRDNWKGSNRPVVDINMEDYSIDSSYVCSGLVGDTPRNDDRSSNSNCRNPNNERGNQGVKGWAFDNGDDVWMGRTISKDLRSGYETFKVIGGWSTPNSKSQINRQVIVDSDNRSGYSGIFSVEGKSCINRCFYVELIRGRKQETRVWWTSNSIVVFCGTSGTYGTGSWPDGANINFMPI
For test [4] the following is noted: prior art; cited from earlier work.
Test [5] has as its system influenza and parainfluenza viruses. The note with it: Palese et al., Virology 1974; cited from earlier work.
Test [6] concerns Vibrio cholerae neuraminidase. Conditions: Meindl and Tuppy 1969; cited from earlier work.

Regarding `CC(=O)N[C@H]1[C@H]([C@H](O)[C@H](O)CO)OC(C(=O)O)=C[C@@H]1NC(=N)NN` [Example 1, 5-(Acetylamino)-4-[[amino(aminoimino)methyl]amino]-2,6-anhydro-3,4,5-trideoxy-D-glycero-D-galacto-non-2-enonic acid], the IC50 in test [1] is 3 µg/mL (≈ 8.64 µM); in test [2], 2.9 µg/mL (≈ 8.35 µM); in test [3], 3740 nM.

Consider `CC(=O)N[C@H]1[C@H]([C@H](O)[C@H](O)CO)OC(C(=O)O)=C[C@@H]1NC(N)=N[N+](=O)[O-]` [Example 4, 5-(Acetylamino)-4-[[amino(nitroimino)methyl]amino]-2,6-anhydro-3,4,5-trideoxy-D-glycero-D-galacto-2-enonic acid], for which the IC50 in test [1] is 24 µg/mL (≈ 63.6 µM). As to `O=C(O)C1=CC(O)C(NC(=O)C(F)(F)F)C(C(O)C(O)CO)O1` (centres unmarked) [FANA, 2-deoxy-2,3-dehydro-N-trifluoroacetyl-neuraminic acid], the “antiviral activity in vivo” value in test [4] is “inactive in vivo”. Moreover, the “inhibition of multi-cycle replication of influenza and parainfluenza viruses in vitro” value in test [5] was “inhibits multi-cycle replication”. Take `CC(=O)N[C@H]1[C@H]([C@H](O)[C@H](O)CO)OC(C(=O)O)C[C@@H]1O` (some centres unmarked) [2-deoxy-N-acetylneuraminic acid]: the “inhibition of Vibrio cholerae neuraminidase” value in test [6] is given as “did not inhibit”. Regarding `CCOC(=O)N=C(N)N[C@H]1C=C(C(=O)O)O[C@@H]([C@H](O)[C@H](O)CO)[C@@H]1NC(C)=O` [Example 5], the IC50 in test [1] stood at 0.6 µg/mL (≈ 1.48 µM). Turning to `CC(=O)N[C@H]1[C@H]([C@H](O)[C@H](O)CO)OC(C(=O)O)=C[C@@H]1NC(=N)NO` [Example 2, 5-(Acetylamino)-4-[[amino(hydroxyimino)methyl]amino]-2,6-anhydro-3,4,5-trideoxy-D-glycero-D-galacto-non-2-enonic acid], the values for the IC50 in test [1], in test [2] and in test [3] were less than 0.1 µg/mL, 0.1 µg/mL (≈ 0.287 µM) and 1720 nM, respectively.

The values are drawn from US5639786A (priority 1994, dated 1997).
